Measured values: US11820766B2, “Monoacylglycerol lipase modulators” (Janssen Pharmaceutica NV, priority 2018, dated 2023)

molecular target: T1, human MGL from HeLa cells (Homo sapiens, UniProt Q99685); assay: In vitro MGL activity assay: [glycerol-1,3-3H]-oleyl glycerol cleavage by MGL from HeLa cells; assay type: biochemical; details: 300 nM [Glycerol-1,3-3H]-oleyl glycerol, one hour
T1 construct: combining endogenously expressed MGL from HeLa cells with test compounds; endogenous in cells; host or cells: HeLa cells / cell homogenates
T1 sequence (Q99685 1-303): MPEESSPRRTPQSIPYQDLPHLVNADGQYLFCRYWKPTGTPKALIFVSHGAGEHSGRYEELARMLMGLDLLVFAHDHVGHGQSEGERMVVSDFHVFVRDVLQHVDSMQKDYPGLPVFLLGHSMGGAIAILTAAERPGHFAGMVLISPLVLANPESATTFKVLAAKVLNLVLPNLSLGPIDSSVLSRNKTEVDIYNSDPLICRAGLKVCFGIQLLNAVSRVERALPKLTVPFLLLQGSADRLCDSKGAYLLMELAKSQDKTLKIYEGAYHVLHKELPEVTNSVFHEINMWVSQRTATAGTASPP
Source text: MGL is the predominant hydrolase in HeLa cells/cell homogenates.

Row | IC50 | SMILES
1 | 58.1 nM | Cc1nn(C)c(C)c1C(=O)N1CCc2c(nn(C)c2-c2cc(F)c(F)c(F)c2)[C@@H]1C [Example 344, [(7S)-2,7-Dimethyl-3-(3,4,5-trifluorophenyl)-5,7-dihydro-4H-pyrazolo[3,4-c]pyridin-6-yl]-(1,3,5-trimethylpyrazol-4-yl)methanone]
2 | 9270 nM | C[C@H]1c2nn(C)c(-c3cc(F)c(F)c(F)c3)c2CCN1C(=O)c1ccc2nncn2c1 [Example 439, [(7S)-2,7-Dimethyl-3-(3,4,5-trifluorophenyl)-5,7-dihydro-4H-pyrazolo[3,4-c]pyridin-6-yl]-([1,2,4]triazolo[4,3-a]pyridin-6-yl)methanone]
3 | 19.8 nM | C[C@H]1c2nn(C)c(-c3cc(F)c(F)c(F)c3)c2CCN1C(=O)c1nc(C(F)(F)F)n2ccncc12 [Example 463, [(7S)-2,7-Dimethyl-3-(3,4,5-trifluorophenyl)-5,7-dihydro-4H-pyrazolo[3,4-c]pyridin-6-yl]-[3-(trifluoromethyl)imidazo[1,5-a]pyrazin-1-yl]methanone]
4 | 73.6 nM | Cc1cnc2cccc(C(=O)N3CCc4c(nn(C)c4-c4cc(F)c(F)c(F)c4)[C@@H]3C)c2n1 [Example 475, [(7S)-2,7-Dimethyl-3-(3,4,5-trifluorophenyl)-5,7-dihydro-4H-pyrazolo[3,4-c]pyridin-6-yl]-(3-methylquinoxalin-5-yl)methanone]
5 | 28.7 nM | C[C@H]1c2nn(C)c(-c3cc(F)c(F)c(F)c3)c2CCN1C(=O)c1ccnc2c1OCCO2 [Example 569, 2,3-Dihydro-[1,4]dioxino[2,3-b]pyridin-8-yl-[(7S)-2,7-dimethyl-3-(3,4,5-trifluorophenyl)-5,7-dihydro-4H-pyrazolo[3,4-c]pyridin-6-yl]methanone]
6 | 50.7 nM | C[C@H]1c2nn(C)c(-c3cccc(C(F)(F)F)c3)c2CCN1C(=O)c1ccc2ncccc2c1 [Example 468, [(7S)-2,7-Dimethyl-3-[3-(trifluoromethyl)phenyl]-5,7-dihydro-4H-pyrazolo[3,4-c]pyridin-6-yl]-(6-quinolyl)methanone]
7 | 285 nM | C[C@H]1c2nn(C)c(-c3cc(F)c(F)c(F)c3)c2CCN1C(=O)c1cc2n(n1)CCCO2 [Example 553, 6,7-Dihydro-5H-pyrazolo[5,1-b][1,3]oxazin-2-yl-[(7S)-2,7-dimethyl-3-(3,4,5-trifluorophenyl)-5,7-dihydro-4H-pyrazolo[3,4-c]pyridin-6-yl]methanone]
8 | 330 nM | C[C@H]1c2nn(C)c(-c3cc(F)c(F)c(F)c3)c2CCN1C(=O)c1cccc2c1CCNC2 [Example 574, [(7S)-2,7-Dimethyl-3-(3,4,5-trifluorophenyl)-5,7-dihydro-4H-pyrazolo[3,4-c]pyridin-6-yl]-(1,2,3,4-tetrahydroisoquinolin-5-yl)methanone]
9 | 0.3 nM | C[C@H]1c2nn(C)c(-c3cc(F)c(F)c(F)c3)c2CCN1C(=O)c1c(F)cnc2c1ccn2C [Example 370, [(7S)-2,7-Dimethyl-3-(3,4,5-trifluorophenyl)-5,7-dihydro-4H-pyrazolo[3,4-c]pyridin-6-yl]-(5-fluoro-1-methyl-pyrrolo[2,3-b]pyridin-4-yl)methanone]
10 | 22.8 nM | C[C@H]1c2nn(C)c(-c3cc(F)c(F)c(F)c3)c2CCN1C(=O)c1c[nH]c2ccc(F)cc12 [Example 355, [(7S)-2,7-Dimethyl-3-(3,4,5-trifluorophenyl)-5,7-dihydro-4H-pyrazolo[3,4-c]pyridin-6-yl]-(5-fluoro-1H-indol-3-yl)methanone]
11 | 294 nM | C[C@H]1c2nn(C)c(-c3cc(F)c(F)c(F)c3)c2CCN1C(=O)c1cnc2n1CCC2 [Example 559, 6,7-Dihydro-5H-pyrrolo[1,2-a]imidazol-3-yl-[(7S)-2,7-dimethyl-3-(3,4,5-trifluorophenyl)-5,7-dihydro-4H-pyrazolo[3,4-c]pyridin-6-yl]methanone]
12 | 1080 nM | C[C@@H]1c2nn(-c3ccccc3)c(-c3ccccc3)c2CCN1C(=O)c1cnn(C)c1C1CC1 [Example 349, (R)-(5-cyclopropyl-1-methyl-1H-pyrazol-4-yl) (7-methyl-2,3-diphenyl-2,4,5,7-tetrahydro-6H-pyrazolo[3,4-c]pyridin-6-yl) methanone]

same assay, conditions: 300 nM [Glycerol-1,3-3H]-oleyl glycerol, one hour incubation

Row | SMILES | IC50
13 | CCc1nc(C(=O)N2CCc3c(nn(C)c3-c3cc(F)c(F)c(F)c3)[C@@H]2C)nn1-c1ccccc1 [Example 202, (S)-(2,7-Dimethyl-3-(3,4,5-trifluorophenyl)-2,4,5,7-tetrahydro-6H-pyrazolo[3,4-c]pyridin-6-yl)(5-ethyl-1-phenyl-1H-1,2,4-triazol-3-yl)methanone] | 7.39 nM
14 | Cc1ncn(-c2cccc(C(=O)N3CCc4c(nn(C)c4-c4cc(F)c(F)c(F)c4)[C@@H]3C)c2)n1 [Example 276, [(7S)-2,7-Dimethyl-3-(3,4,5-trifluorophenyl)-5,7-dihydro-4H-pyrazolo[3,4-c]pyridin-6-yl]-[3-(3-methyl-1,2,4-triazol-1-yl)phenyl]methanone] | 145 nM
15 | Cn1nc2c(c1-c1ccccc1)CCN(C(=O)c1ncn(-c3ccccc3)n1)C2 [Example 23, (2-Methyl-3-phenyl-2,4,5,7-tetrahydro-6H-pyrazolo[3,4-c]pyridin-6-yl)(1-phenyl-1H-1,2,4-triazol-3-yl)methanone] | 847 nM
16 | Cn1nc2c(c1-c1ccccc1)CCN(C(=O)c1nc3ccccc3s1)C2 [Example 62, Benzo[d]thiazol-2-yl(2-methyl-3-phenyl-2,4,5,7-tetrahydro-6H-pyrazolo[3,4-c]pyridin-6-yl)methanone] | 1640 nM
17 | C[C@H]1c2nn(C)c(-c3cc(F)cc(F)c3)c2CCN1C(=O)c1cc(OCCF)ccc1F [Example 142, (S)-(3-(3,5-Difluorophenyl)-2,7-dimethyl-2,4,5,7-tetrahydro-6H-pyrazolo[3,4-c]pyridin-6-yl)(2-fluoro-5-(2-fluoroethoxy)phenyl)methanone] | 3.7 nM
18 | COc1ccc(-c2c3c(nn2C)[C@H](C)N(C(=O)c2ccc4nccnc4c2)CC3)cc1F [Example 185, (S)-(3-(3-Fluoro-4-methoxyphenyl)-2,7-dimethyl-2,4,5,7-tetrahydro-6H-pyrazolo[3,4-c]pyridin-6-yl)(quinoxalin-6-yl)methanone] | 386 nM
19 | C[C@H]1c2nn(C)c(-c3cc(F)c(F)c(F)c3)c2CCN1C(=O)c1cccc(-c2cc[nH]n2)c1 [Example 270, [(7S)-2,7-Dimethyl-3-(3,4,5-trifluorophenyl)-5,7-dihydro-4H-pyrazolo[3,4-c]pyridin-6-yl]-[3-(1H-pyrazol-3-yl)phenyl]methanone] | 9.07 nM
20 | CC1c2nn(C)c(-c3ccc4c(ccn4C)c3)c2CCN1C(=O)c1ccc2ncccc2c1 (centres unmarked) [Example 252, (2,7-Dimethyl-3-(1-methyl-1H-indol-5-yl)-2,4,5,7-tetrahydro-6H-pyrazolo[3,4-c]pyridin-6-yl)(quinolin-6-yl)methanone] | 631 nM
21 | Cn1nc2c(c1-c1ccccc1)CCN(C(=O)c1ccnc3ccccc13)C2 [Example 86, (2-Methyl-3-phenyl-2,4,5,7-tetrahydro-6H-pyrazolo[3,4-c]pyridin-6-yl)(quinolin-4-yl)methanone] | 32.4 nM
22 | Cc1ccc(-c2c3c(nn2C)[C@H](C)N(C(=O)c2ccc4nccnc4c2)CC3)cc1Cl [Example 183, (S)-(3-(3-Chloro-4-methylphenyl)-2,7-dimethyl-2,4,5,7-tetrahydro-6H-pyrazolo[3,4-c]pyridin-6-yl)(quinoxalin-6-yl)methanone] | 26.9 nM
23 | Cn1nc2c(c1-c1ccccc1)CCN(C(=O)c1cccc3[nH]ncc13)C2 [Example 65, (1H-Indazol-4-yl)(2-methyl-3-phenyl-2,4,5,7-tetrahydro-6H-pyrazolo[3,4-c]pyridin-6-yl)methanone] | 101 nM
24 | Cn1nc2c(c1-c1ccccc1)CCN(C(=O)c1cccc3scnc13)C2 [Example 61, Benzo[d]thiazol-4-yl(2-methyl-3-phenyl-2,4,5,7-tetrahydro-6H-pyrazolo[3,4-c]pyridin-6-yl)methanone] | 755 nM
25 | C[C@H]1c2nn(C)c(-c3cc(F)c(F)c(F)c3)c2CCN1C(=O)c1ccc2nccnc2c1 [Example 242, (S)-(2,7-Dimethyl-3-(3,4,5-trifluorophenyl)-2,4,5,7-tetrahydro-6H-pyrazolo[3,4-c]pyridin-6-yl)(quinoxalin-6-yl)methanone] | 22.3 nM
26 | C[C@H]1c2nn(C)c(-c3cc(F)c(F)c(F)c3)c2CCN1C(=O)c1cccn2cncc12 [Example 212, (S)-(2,7-Dimethyl-3-(3,4,5-trifluorophenyl)-2,4,5,7-tetrahydro-6H-pyrazolo[3,4-c]pyridin-6-yl)(imidazo[1,5-a]pyridin-8-yl)methanone] | 5.56 nM
27 | C[C@H]1c2nn(C)c(-c3cc(F)c(F)c(F)c3)c2CCN1C(=O)c1ccccc1OC(F)(F)F [Example 263, [(7S)-2,7-Dimethyl-3-(3,4,5-trifluorophenyl)-5,7-dihydro-4H-pyrazolo[3,4-c]pyridin-6-yl]-[2-(trifluoromethoxy)phenyl]methanone] | 28.3 nM

Results, then the compound that gave them:

Row | IC50 | SMILES
28 | 38 nM | COc1cncc(C(=O)N2CCc3c(nn(C)c3-c3cc(F)c(F)c(F)c3)[C@@H]2C)c1C [Example 313, [(7S)-2,7-Dimethyl-3-(3,4,5-trifluorophenyl)-5,7-dihydro-4H-pyrazolo[3,4-c]pyridin-6-yl]-(5-methoxy-4-methyl-3-pyridyl)methanone]
29 | 41.7 nM | C[C@H]1c2nn(C)c(-c3cc(F)c(F)c(F)c3)c2CCN1C(=O)c1ncn(-c2ncccc2F)n1 [Example 324, [(7S)-2,7-Dimethyl-3-(3,4,5-trifluorophenyl)-5,7-dihydro-4H-pyrazolo[3,4-c]pyridin-6-yl]-[1-(3-fluoro-2-pyridyl)-1,2,4-triazol-3-yl]methanone]
